Results as given in the supplement of paper PMC10307832.

Tests used:
Assay in all cases: relative viability (nuclei count vs DMSO), 5 days (fraction); higher = more cells survive
BAM7 + Pictilisib = compound: CCOC1=CC=CC=C1N=NC2=C(NN(C2=O)C3=NC(=CS3)C4=CC=CC=C4)C [BAM7] + CS(=O)(=O)N1CCN(Cc2cc3nc(-c4cccc5[nH]ncc45)nc(N4CCOCC4)c3s2)CC1 [Pictilisib] (partner 1 µM)
In short: (§1)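 For relative viability, nuclei counts in treated wells were divided by those in vehicle wells. Lung cancer cell lines had been pin-tool dosed in 1536-well plates the day after seeding and cultured for 5 days, then fixed and stained in one step (final 0.05% Triton X-100, 1% formaldehyde, 1 ug/ml Hoechst) and imaged at 4×. Doses were one drug alone or a fixed anchor-drug dose plus five library-drug doses (not always all listed) in √10 steps, and values are duplicate-plate medians.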

[1] = compound: CCn1c(-c2nonc2N)nc2c(C#CC(C)(C)O)ncc(OC[C@H]3CCCNC3)c21 + NC(=O)Nc1cc(-c2cccc(F)c2)sc1C(=O)N[C@H]1CCCNC1 [AZD7762] (partner 0.2 µM)
In short: as §1

[2] = compound: CCn1c(-c2nonc2N)nc2c(C#CC(C)(C)O)ncc(OC[C@H]3CCCNC3)c21 + CC(=O)Nc1cccc(-n2c(=O)n(C3CC3)c(=O)c3c(Nc4ccc(I)cc4F)n(C)c(=O)c(C)c32)c1 [Trametinib] (partner 0.02 µM)
In short: as §1

BAM7 + Decitabine = compound: CCOC1=CC=CC=C1N=NC2=C(NN(C2=O)C3=NC(=CS3)C4=CC=CC=C4)C [BAM7] + Nc1ncn([C@H]2C[C@H](O)[C@@H](CO)O2)c(=O)n1 [Decitabine] (partner 2 µM)
In short: as §1

Cell Line	relative viability (BAM7 + Pictilisib; first compound 0.5 µM)	relative viability (BAM7 + Pictilisib; first compound 5 µM)	relative viability (BAM7 + Pictilisib; first compound 15.81 µM)	relative viability (BAM7 + Pictilisib; first compound 50 µM)	relative viability ([1]; first compound 0.01 µM)	relative viability ([1]; first compound 0.03162 µM)	relative viability ([1]; first compound 0.1 µM)	relative viability ([1]; first compound 0.3162 µM)	relative viability ([1]; first compound 1 µM)	relative viability ([2]; first compound 0.01 µM)	relative viability ([2]; first compound 0.03162 µM)	relative viability ([2]; first compound 0.1 µM)	relative viability ([2]; first compound 0.3162 µM)	relative viability ([2]; first compound 1 µM)	relative viability (BAM7 + Decitabine; first compound 0.5 µM)	relative viability (BAM7 + Decitabine; first compound 5 µM)	relative viability (BAM7 + Decitabine; first compound 15.81 µM)	relative viability (BAM7 + Decitabine; first compound 50 µM)
HCC-78	0.178	0.177	0.213	0.245	0.627	0.532	0.579	0.614	0.445	0.639	0.709	0.703	0.69	0.652	0.965	0.696	0.731	0.752
HCC-366	0.163	0.163	0.141	0.0939	0.332	0.239	0.287	0.273	0.241	0.391	0.312	0.364	0.334	0.293	0.325	0.327	0.319	0.313
HCC-827	0.969	0.908	0.877	0.977	0.233	0.256	0.273	0.199	0.196	0.532	0.5	0.546	0.504	0.462	0.314	0.314	0.376	0.302
HOP-62	0.664	0.729	0.742	0.799	0.761	0.677	0.732	0.577	0.516	0.366	0.367	0.41	0.387	0.364	0.191	0.256	0.226	0.255
IA-LM	0.356	0.306	0.37	0.392														
NCI-H520	0.273	0.3	0.264	0.324						0.645	0.789	0.574	0.322	0.2	0.54	0.478	0.484	0.525
NCI-H522					0.726	0.763	0.838	0.686	0.772	0.826	0.763	0.783	0.667	0.82	0.729	0.638	0.687	0.671
NCI-H661	0.406	0.426	0.452	0.423						0.52	0.615	0.521	0.491	0.569	0.597	0.579	0.611	0.579
NCI-H1299	0.675	0.779	0.782	0.824														
NCI-H1563	0.651	0.714	0.642	0.639														
NCI-H1648					0.601	0.728	0.615	0.686	0.673	0.46	0.474	0.481	0.417	0.418	0.395	0.642	0.432	0.404
NCI-H1650	0.524	0.572	0.565	0.699						0.548	0.582	0.559	0.51	0.551	0.39	0.409	0.431	0.38
NCI-H1703	0.23	0.262		0.256		0.123		0.0983	0.113									
NCI-H2009	0.899	0.827	0.846	0.854						0.268	0.274	0.245	0.301	0.259	0.369	0.39	0.351	0.418
NCI-H2023	0.277	0.245	0.3	0.297						0.639	0.55	0.422	0.432	0.288	0.218	0.225	0.191	0.246
NCI-H2228	0.407	0.429	0.34	0.429						0.553	0.449	0.468	0.325	0.197				
NCI-H2342					0.444	0.482	0.498	0.534	0.455	0.845	0.848	0.87	0.941	0.957	0.821	0.669	0.594	0.551
SK-LU-1	0.502	0.658	0.678	0.737						0.527	0.495	0.458	0.443	0.441	0.626	0.629	0.693	0.697
SK-MES-1	0.432	0.455	0.369	0.358						0.61	0.52	0.569	0.465	0.503	0.346	0.337	0.375	0.395
SW 900					0.656	0.659	0.712	0.575	0.56	0.635	0.798	0.762	0.545	0.891		0.465		0.494
SW 1573	0.583	0.48	0.457	0.483						0.438	0.553	0.476	0.381	0.33	0.502	0.551	0.636	0.594
